# Test results taken from paper PMC11205114, “A Multiomics Perspective on Plant Cell Wall-Degrading Enzyme Production: Insights from the Unexploited Fungus Trichoderma erinaceum” (Journal of Fungi, 2024).
# Tests used:
# TrCel3B [1] = target: T1, TrCel3B (Trichoderma reesei, UniProt G0RJ07); assay: pNP release at […] nm; type: biochemical; conditions: pH 5.5, 50 °C (methods; figure legend 60 °C), 30 min
# T1 construct: gene cel3b; gene 2622 bp, 96 kDa
# T1 sequence (G0RJ07 19-874): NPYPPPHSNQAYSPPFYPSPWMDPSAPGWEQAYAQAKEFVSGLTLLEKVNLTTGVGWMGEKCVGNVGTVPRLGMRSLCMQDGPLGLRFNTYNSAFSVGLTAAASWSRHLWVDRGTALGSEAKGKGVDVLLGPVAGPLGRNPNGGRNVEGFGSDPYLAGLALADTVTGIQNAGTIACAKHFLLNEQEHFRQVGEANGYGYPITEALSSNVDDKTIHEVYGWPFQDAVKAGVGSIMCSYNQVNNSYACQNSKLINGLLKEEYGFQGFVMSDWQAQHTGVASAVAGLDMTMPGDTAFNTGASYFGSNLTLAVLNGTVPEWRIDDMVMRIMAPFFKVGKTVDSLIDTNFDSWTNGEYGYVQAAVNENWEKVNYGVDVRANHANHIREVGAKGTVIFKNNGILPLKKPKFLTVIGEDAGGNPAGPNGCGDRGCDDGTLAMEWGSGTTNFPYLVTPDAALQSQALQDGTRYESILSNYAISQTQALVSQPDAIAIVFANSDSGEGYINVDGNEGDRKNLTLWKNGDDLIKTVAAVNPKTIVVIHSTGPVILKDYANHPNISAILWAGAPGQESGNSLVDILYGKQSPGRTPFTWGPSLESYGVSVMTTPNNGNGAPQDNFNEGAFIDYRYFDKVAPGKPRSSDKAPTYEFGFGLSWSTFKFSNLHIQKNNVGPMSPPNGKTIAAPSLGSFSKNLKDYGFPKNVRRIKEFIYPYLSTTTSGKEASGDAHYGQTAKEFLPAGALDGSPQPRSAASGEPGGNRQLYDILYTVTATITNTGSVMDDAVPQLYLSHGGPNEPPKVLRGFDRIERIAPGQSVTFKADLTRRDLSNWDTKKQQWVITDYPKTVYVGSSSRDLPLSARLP
# TrCel3B [2] = target: T1, TrCel3B; assay: pNPG hydrolysis, pNP release at […] nm; type: biochemical; conditions: pNPG substrate (5 mM stock), pH 4.5, 60 °C
SMILES,pNP release at 405 nm (TrCel3B [1]),% inhibition (TrCel3B [2])
O=[N+]([O-])c1ccc(O[C@@H]2O[C@H](CO)[C@@H](O)[C@H](O)[C@H]2O)cc1 [4-nitrophenyl β-D-glucopyranoside],TeBgl3C and TrCel3B displayed the highest specific activities on pNPG,
OC[C@H]1OC(O)[C@H](O)[C@@H](O)[C@@H]1O (some centres unmarked) [glucose],,TeBgl3C showed a slightly higher tolerance to glucose than TrCel3B
